Measured values: patent US5700445A, “N-methyl piperazine compounds having dopamine receptor affinity” (Allelix Biopharmaceuticals, Inc., priority 1994, dated 1997)

Key:
[1] = target: T1, human D2 receptor (short isoform) (Homo sapiens, UniProt P14416); assay: D2 receptor binding assay (displacement of 3H-spiperone), reported as D2/D4 selectivity; conditions: ratio D2/D4; 3H-spiperone 0.25 nM; D2 short isoform vs D4.2
T1 construct: 3H-spiperone displacement
Experimental: (§1) The potency of the test compound to reduce ^3 H-spiperone binding directly correlated to its binding affinity for the receptor.
CH4 C1 (rat pituitary) cells stably transfected with the human D2 receptor (short isoform) were grown in CO2 independent media in roller bottles (1500 cm^2) for 10 days. 100 μM ZnSO4 was added to the cells (the D2 promoter being zinc inducible). After 16 hours, fresh media was added to allow the cells to recover for 24 hours. The cells were harvested using versine and then centrifuged in a Sorval centrifuge for 10 minutes, at 5000 rpm (GS3 rotor). Pellets were quickly frozen in liquid nitrogen and stored at -80° C. until used in the binding assays. When used in the assay, cells were thawed on ice for 20 minutes. […] The receptor protein concentration was determined using the Pierce BCA assay.
(§2) The tubes were vortexed and incubated at room temperature for 90 minutes. The binding reaction was stopped by filtering using a Brandell Cell Harvester. The samples were filtered under vacuum over glass fibre filters (Whatman GF/B) presoaked for 2 hours in 0.3% polyethylenimine (PEI) in 50 mM Tris buffer (pH 7.4). The filters were then washed 3 times with 5 ml ice cold 50 mM Tris buffer (pH 7.4). Individual filter disks were put in scintillation vials (Biovials, Bechman). Ready Protein Plus liquid scintillant (5 ml, Beckman) was added and the vials counted by liquid scintillation spectrophotometry (Beckman LSC 6500) after equilibrating for three hours at room temperature to determine total binding (BT).
This assay employed the same procedures as the non-specific binding assay for D4 with the exception that 2 μM (final conc.) of (-) sulpiride (Research Chemicals Inc.) was used in place of dopamine.
(§3) The tubes were vortexed and incubated at room temperature for 90 minutes at which time the binding reaction was stopped by filtering. The filters were washed and counted using the same procedure as in the total binding assay described above to give the displacement binding value (BD).
(§4) IC50 was determined from an inhibition response curve, logit-log plot of %B/B0 vs concentration of test compound. Ki was calculated by the Cheng and Prustoff transformation: […]
where [L] is the concentration of ^3 H-spiperone used in the assay and KD is the dissociation constant of ^3 H-spiperone determined independently under the same binding conditions.

[2] = target: T2, human D4 receptor (D4.2 sub-type) (Homo sapiens, UniProt P21917, DEL265-296); assay: D4 receptor binding assay (displacement of 3H-spiperone); conditions: 3H-spiperone 0.25 nM, cell membranes, Cheng and Prustoff, read-out: D4 AFFINITY Ki
T2 construct: expressed in transfected cells; host or cells: HEK 298 (human embryonic kidney) cells, stably transfected
T2 sequence (P21917 with tags, fused parts or gaps DEL265-296): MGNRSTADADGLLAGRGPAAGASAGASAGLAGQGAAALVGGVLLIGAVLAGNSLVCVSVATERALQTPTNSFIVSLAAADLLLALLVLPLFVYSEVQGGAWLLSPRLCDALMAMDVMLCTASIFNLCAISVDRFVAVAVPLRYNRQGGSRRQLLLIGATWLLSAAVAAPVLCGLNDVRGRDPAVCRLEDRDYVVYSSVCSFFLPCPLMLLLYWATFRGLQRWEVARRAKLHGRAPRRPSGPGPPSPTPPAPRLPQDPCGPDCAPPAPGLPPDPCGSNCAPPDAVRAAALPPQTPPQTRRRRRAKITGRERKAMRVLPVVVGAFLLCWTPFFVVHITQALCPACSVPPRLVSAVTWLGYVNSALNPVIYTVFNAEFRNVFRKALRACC
Experimental: as §1
The cells were then centrifuged in a Sorval centrifuge for 10 min, 5000 rpm (GS3 rotor) and the pellets quickly frozen in liquid nitrogen and stored at -80° C. until used in binding assay. When used in the assay, cells were thawed on ice for 20 min and then 10 ml of incubation buffer (50 mM Tris, 1 mM EDTA, 4 mM MgCl2, 5 mM KCl, 1.5 mM CaCl2, 120 mM NaCl, pH 7.4) was added. […] Concentration of receptor protein was determined using the Pierce BCA assay.
as §2
The tubes were vortexed and incubated at room temperature for 90 minutes at which time the binding reaction was stopped by filtering. The filters were washed and counted using the same procedure as in the total binding assay described above to give the non-specific binding value (NSB).
as §3, §4

[3] = target: T3, human D4 receptors (Homo sapiens, UniProt P21917); assay: Functional agonist assay: decrease in forskolin-stimulated cAMP in D4 stably expressing CHO cells; assay type: cell-based; conditions: forskolin 10 μM
T3 construct: expressed in transfected cells; host or cells: CHO Pro 5 cells, stably expressing
T3 sequence (P21917 1-419): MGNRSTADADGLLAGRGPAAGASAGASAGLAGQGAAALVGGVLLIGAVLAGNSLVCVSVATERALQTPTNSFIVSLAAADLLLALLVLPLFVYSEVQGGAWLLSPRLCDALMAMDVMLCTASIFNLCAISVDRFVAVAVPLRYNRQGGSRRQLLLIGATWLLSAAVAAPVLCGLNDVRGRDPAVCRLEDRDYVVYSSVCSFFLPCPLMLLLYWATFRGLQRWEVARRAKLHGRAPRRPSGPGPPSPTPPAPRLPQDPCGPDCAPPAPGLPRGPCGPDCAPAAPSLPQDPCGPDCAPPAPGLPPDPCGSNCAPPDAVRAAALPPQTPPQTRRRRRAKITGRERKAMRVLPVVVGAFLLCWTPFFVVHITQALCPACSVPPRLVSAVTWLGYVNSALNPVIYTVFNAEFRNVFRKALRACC
Experimental: The D4 receptor responds to dopamine and other agonists by reducing adenyl cyclase mediated production of cyclic AMP. Particular test compound 4-chloro-5H-dibenzo[b,e][1,4]diazepine was assayed for its ability to reverse dopamine inhibition of adenyl cyclase by the following procedure. Forskolin was used to elevate the basal adenyl cyclase activity.
(§5) CHO Pro 5 cells stably expressing human D4 receptors were plated in 6 well plates in DMEM (Dulbecco's Modified Eagle Medium)/F12(Nutrient Mixture F12 (Ham)) media with 10% FCS (fetal calf serum) and G418 (Geneticen Disulfate), and incubated at 37° C. in a CO2 incubator. The cells were allowed to grow to about 70% confluence before use in the assay.
To D4 stably expressing CHO cells prepared as previously described were added test compound and forskolin (10 μM final concentration). The cells were incubated, extracted and measured for cAMP concentration as above. Agonist activity of a test compound would result in a decrease in cAMP concentration compared to cells treated with forskolin (Cf) only.

[4] = target: T3, human D4 receptors; assay: Functional antagonist assay: reversal of dopamine inhibition of forskolin-stimulated adenyl cyclase (cAMP) in CHO Pro 5 cells; assay type: cell-based; conditions: dopamine and forskolin both 10 μM, read-out: % REVERSAL OF DOPAMINE EFFECT
Experimental: The D4 receptor responds to dopamine and other agonists by reducing adenyl cyclase mediated production of cyclic AMP. […] Forskolin was used to elevate the basal adenyl cyclase activity.
as §5
Basal adenyl cyclase activity was determined from wells with only SFM+IBMX media added.
The cells were then incubated at 37° C. for 30 minutes in a CO2 incubator. Following incubation the media was aspirated from each well and then washed once with 2 mL of PBS (phosphate buffered saline). […] The cells from each well were then scraped and transferred into individual Eppendorf tubes. […]
Total inhibition (I0) of forskolin-stimulated adenyl cyclase activity by dopamine was determined as the difference in concentration of cAMP in the forskolin-treated cells (Cf) and dopamine-forskolin treated cells (Cd).
Net inhibition (I) of forskolin-stimulated adenyl cyclase activity by dopamine in the presence of an antagonist was determined as the difference in concentration of cAMP in the forskolin-treated cells (Cf) and test compound, dopamine and forskolin treated cells (C).

[5] = target: D4 receptor; conditions: background, marketed products; read-out: D4 affinity, Ki; cited from earlier work

T1 sequence (P14416 with tags, fused parts or gaps DEL242-270): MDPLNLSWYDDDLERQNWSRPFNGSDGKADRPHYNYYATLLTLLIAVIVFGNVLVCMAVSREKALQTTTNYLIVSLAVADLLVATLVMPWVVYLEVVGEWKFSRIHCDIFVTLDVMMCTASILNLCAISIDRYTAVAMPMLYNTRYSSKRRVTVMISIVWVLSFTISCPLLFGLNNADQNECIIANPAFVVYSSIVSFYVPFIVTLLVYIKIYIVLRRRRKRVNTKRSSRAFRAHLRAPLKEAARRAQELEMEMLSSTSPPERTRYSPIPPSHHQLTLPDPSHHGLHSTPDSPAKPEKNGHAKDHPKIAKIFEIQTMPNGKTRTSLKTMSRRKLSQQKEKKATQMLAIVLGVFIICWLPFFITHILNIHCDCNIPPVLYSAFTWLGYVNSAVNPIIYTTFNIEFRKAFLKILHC

SELECTIVITY FOR D4, D2/D4 [1] | Ki [2] | SMILES | other results
12.6 |  | CN1CCN(C2=Nc3ccccc3Nc3cccc(F)c32)CC1 [1-fluoro-11-(4-methyl-1-piperazinyl)-5H-dibenz[b,e][1,4]diazepine] | 
10.7 |  | CN1CCN(C2=Nc3cc(Cl)c(Cl)cc3Nc3ccc(Cl)cc32)CC1 [2,7,8-trichloro-11-(4-methyl-1-piperazinyl)-5H-dibenzo[b,e][1,4]diazepine] | 
21.4 | 4.5 nM | CN1CCN(C2=Cc3cc(C#N)ccc3Sc3ccccc32)CC1 [2-cyano-10-(4-methyl-piperazinyl)-dibenzo[b,f]thiepine] | 
 | 14.2 nM | CN1CCN(C2=Nc3ccccc3Nc3ccc(C(F)(F)F)cc32)CC1 [2-trifluoromethyl-11-(4-methyl-1-piperazinyl)-5H-dibenzo[b,e][1,4]diazepine] | 
18.8 |  | CN1CCN(C2=Nc3cc(Cl)c(Cl)cc3Nc3c(Cl)cccc32)CC1 [4,7,8-trichloro-11-(4-methyl-1-piperazinyl)-5H-dibenzo[b,e][1,4]diazepine] | 
187.5 | 16.7 nM | CN1CCN(C2=Nc3ccccc3Nc3c(Cl)cccc32)CC1 [4-Chloro-11-(4-methyl-1-piperazinyl)-5H-dibenzo[b,e][1,4]diazepine] | dopamine agonist activity (decrease in cAMP compared to cells treated with forskolin) [3]: no dopamine agonist activity; inhibition at 1 µM ([4]; 1 μM test compound): 16%; inhibition at 10 µM ([4]; 10 μM test compound): 58%
64.4 |  | CN1CCN(C2=Nc3ccccc3Oc3c(C#N)cccc32)CC1 [4-cyano-11-(4-methyl-1-piperazinyl)dibenz[b,f][1,4]oxazepine] | 
21.4 |  | CN1CCN(C2=Nc3ccccc3Oc3c2cccc3[N+](=O)[O-])CC1 [4-nitro-11-(4-methyl-1-piperazinyl)dibenz[b,f][1,4]oxazepine] | 
10.6 |  | Cc1cc2c(cc1C)Nc1ccccc1C(N1CCN(C)CC1)=N2 [7,8-dimethyl-11-(4-methyl-1-piperazinyl)-5H-dibenzo[b,e][1,4]diazepine] | 
 |  | CN1CCN(C2=Nc3cc(Cl)ccc3Oc3ccccc32)CC1 [isoloxapine] | Ki [5]: ~20 nM
